Measured values from patent US10822325B2, “Human GLUT5 specific inhibitors and methods of treatment” (UNM RAINFOREST INNOVATIONS, priority 2015, dated 2020).
“Also recorded” adds a separate entry of the source.

Key:
human GLUT3 = target: T1, human GLUT3 (Homo sapiens, UniProt P11169); assay: Glucose entrance counter-flow transport in GLUT3 proteoliposomes; format: biochemical; conditions: 2 mM compound
T1 construct: Full length DNA was subcloned into pFastBac1 (Life Technologies) vector with a N-terminal hexahistidine tag; hexahistidine (N); made in house; host or cells: Sf21 insect cells (baculovirus, pFastBac1)
T1 sequence (P11169 1-496): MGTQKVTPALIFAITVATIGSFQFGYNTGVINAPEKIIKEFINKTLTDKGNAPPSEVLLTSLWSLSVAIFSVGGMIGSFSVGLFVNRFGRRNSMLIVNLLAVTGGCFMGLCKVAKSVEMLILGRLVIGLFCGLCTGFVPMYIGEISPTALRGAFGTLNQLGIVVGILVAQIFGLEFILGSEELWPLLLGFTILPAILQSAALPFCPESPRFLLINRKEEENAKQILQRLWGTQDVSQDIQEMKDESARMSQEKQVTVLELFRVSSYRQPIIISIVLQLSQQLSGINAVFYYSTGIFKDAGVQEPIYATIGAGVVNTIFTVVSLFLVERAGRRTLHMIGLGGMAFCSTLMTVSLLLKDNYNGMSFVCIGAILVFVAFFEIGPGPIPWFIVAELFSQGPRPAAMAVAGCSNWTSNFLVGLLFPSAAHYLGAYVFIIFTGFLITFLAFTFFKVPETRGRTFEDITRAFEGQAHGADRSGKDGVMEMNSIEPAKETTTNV
Method: (§1) cDNAs of GLUT1, 3, 4 and 5 were purchased from Open Biosystems (GE Healthcare). cDNAs of GLUT2 was a gift from Prof. Graeme Bell at University of Chicago. Full length DNA was subcloned into pFastBac1 (Life Technologies) vector with a N-terminal hexahistidine tag. Bacmids were generated in DH10Bac E. coli cells (Life Technologies). Baculoviruses were produced using Cellfectin II Reagent and amplified in Sf21 insect cells (Life Technologies). Cells were maintained at 26° C., and P1 (10^6 pfu/mL) was collected from infected cells after 72 hours. SF21 cells were propagated in HyClone SFX-Insect media (GE Healthcare), supplemented with 5% fetal bovine serum (Biowest), 4.8 mM glutamine, antibiotics (100 units/mL Penicillin G and 100 μg/mL streptomycin sulfate) and amphotericin B (2.5 μg/mL). […]
(§2) For the entrance counterflow transport in proteoliposomes, the assay was started by the addition of 5 μL proteoliposomes solution (OD600 nm ˜30) to 200 μL, assay solution, containing 10 μM ^14C-radiolabeled glucose (for GLUT1 wild-type or F379H mutant and GLUT2-4) or fructose (for GLUT5 wild-type or H387F mutant and GLUT2) (Moravek Biochemicals) in 100 mM KPi buffer at pH 7.5. After one minute (or different specified time points when the time-dependent counter-flow transport activity was measured), the transport was stopped with ice-chilled quench buffer [0.1 M KPi (pH 5.5) and 0.1 M lithium chloride]. […]

GLUT5H387F = target: T2, GLUT5H387F (Homo sapiens, UniProt P22732, H387F); assay: Fructose entrance counter-flow transport in GLUT5H387F mutant proteoliposomes; format: biochemical; conditions: 2 mM compound
T2 construct: Full length DNA was subcloned into pFastBac1 (Life Technologies) vector with a N-terminal hexahistidine tag; hexahistidine (N); made in house; host or cells: Sf21 insect cells (baculovirus, pFastBac1)
T2 sequence (P22732 1-501 H387F): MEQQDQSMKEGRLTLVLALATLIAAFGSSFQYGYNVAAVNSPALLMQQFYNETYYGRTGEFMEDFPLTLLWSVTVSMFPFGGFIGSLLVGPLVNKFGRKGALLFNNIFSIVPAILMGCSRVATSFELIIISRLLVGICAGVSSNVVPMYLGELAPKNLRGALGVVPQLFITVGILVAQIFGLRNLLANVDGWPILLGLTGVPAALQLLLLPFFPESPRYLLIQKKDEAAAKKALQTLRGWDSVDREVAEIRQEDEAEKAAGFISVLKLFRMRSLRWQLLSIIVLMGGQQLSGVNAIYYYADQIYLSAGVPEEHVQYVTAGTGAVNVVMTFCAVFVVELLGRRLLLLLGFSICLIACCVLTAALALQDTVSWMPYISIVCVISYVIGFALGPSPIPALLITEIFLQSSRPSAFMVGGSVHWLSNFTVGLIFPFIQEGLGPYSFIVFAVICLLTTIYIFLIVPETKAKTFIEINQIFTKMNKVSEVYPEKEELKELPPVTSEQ
Method: as §1, §2

`CS(=O)(=O)c1ccc(Nc2ccc3c(c2)OCO3)c([N+](=O)[O-])c1` [MSNBA, N-[4-(methylsulfonyl)-2-nitrophenyl]-1,3-benzodioxol-5-amine] was tested, and the “effect on GLUT3 glucose transport” value (human GLUT3) was “did not affect; also recorded: did not influence”, the “activity retained by GLUT5H387F” value (GLUT5H387F) was 93% and the “effect on GLUT5H387F fructose transport” value (GLUT5H387F) was “largely unaffected; also recorded: almost unsusceptible”.
